US7045627B2, “Dichlorinated heterocyclic compounds and methods of synthesis” (R.T. Alamo Ventures I, LLC, priority 2002, dated 2006)

Tested on: PDE1
Assay: PDE1 enzyme inhibition assay
Type: biochemical
Conditions: PDE1 partially purified from bovine heart; 25° C.; varying concentrations; 1% DMSO vehicle
Description: In this example, dichloroflosequinan was subjected to biochemical enzyme assays to determine its respective percent inhibition of a variety of phosphodiesterases (PDE1–PDE6). The methods used have been adapted from those described in the scientific literature, see Hidaka and Asano “Human blood platelet 3′:5′ cyclic nucleotide phosphodiesterase. Isolation of low-Km and high Km phosphodiesterase.” Biochem. Biophys. […] Unhydrolyzed cAMP was bound to AGI-X2 resin, and the remaining [^3H]adenosine in the aqueous phase was quantitated by scintillation counting. • PDE2: PDE2 partially purified from human platelets was used. […] Unhydrolyzed cAMP was bound to AGI-X2 resin, and the remaining [^3H]adenosine in the aqueous phase was quantitated by scintillation counting. • PDE3: PDE3 partially purified from human platelets was used. […] Unhydrolyzed cAMP was bound to AGI-X2 resin, and the remaining [^3H]adenosine in the aqueous phase was quantitated by scintillation counting. • PDE4: PDE4 partially purified from human U-937 pronocytic cells was used. […] Unhydrolyzed cAMP was bound to AGI-X2 resin, and the remaining [^3H]adenosine in the aqueous phase was quantitated by scintillation counting. • PDE5: PDE5 partially purified from human platelets was used. […]

inhibition of PDE1: greater than 50%
Structure (SMILES): Cn1cc([S+]([O-])C(Cl)Cl)c(=O)c2ccc(F)cc21 (stereo not shown) [dichloroflosequinan, 3-dichloromethylsulfinyl-7-fluoro-1-methyl-4-quinolone]
